Test results as given in patent US20100204202A1, “DRUG FOR ALLEVIATING MOTOR COMPLICATIONS OR PSYCHIATRIC SYMPTOMS OF PARKINSON'S DISEASE” (Asubio Pharma Co., Ltd., priority 2007, published 2010).
Counter-ions that a name gives are not always drawn.

Key:
[1] = target: T1, rat serotonin 1A receptors (Rattus norvegicus, UniProt P19327); test: Adenylate cyclase inhibition test via rat serotonin 1A receptors (full agonist-partial agonist judgment test), rat hippocampus membranes; type: biochemical
T1 construct: Each rat was decapitated and the hippocampus was quickly removed; from tissue; host or cells: hippocampus of male Wistar rats
T1 sequence (P19327 1-422): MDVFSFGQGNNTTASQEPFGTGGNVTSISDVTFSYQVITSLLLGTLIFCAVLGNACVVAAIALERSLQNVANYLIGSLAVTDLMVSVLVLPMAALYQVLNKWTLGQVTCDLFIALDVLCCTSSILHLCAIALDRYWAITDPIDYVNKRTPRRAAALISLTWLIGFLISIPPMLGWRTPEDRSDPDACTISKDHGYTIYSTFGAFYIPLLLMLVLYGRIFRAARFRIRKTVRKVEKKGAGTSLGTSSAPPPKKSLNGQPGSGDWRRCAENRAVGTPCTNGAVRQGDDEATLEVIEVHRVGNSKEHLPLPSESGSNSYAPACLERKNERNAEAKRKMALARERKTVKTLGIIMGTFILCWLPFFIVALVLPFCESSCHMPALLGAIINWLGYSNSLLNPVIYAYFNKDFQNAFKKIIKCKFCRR
Procedure: For the test, Wistar male rats supplied by Shimizu Laboratory Supplies were used (9 to 15 weeks old). Each rat was decapitated and the hippocampus was quickly removed. It was homogenized in 10 volumes of buffer (i.e., 25 mM Tris-HCl, 1 mM EGTA, 5 mM EDTA, 5 mM DTT, 300 mM sucrose, 100 KIU/ml aprotinin, pH 7.4). This was then centrifuged at 500×g, 4° C. for 5 minutes, the supernatant was further centrifuged at 39,000×g, 4° C. for 10 minutes, and the residue was used as the rat hippocampus membrane specimen. The rat hippocampus membrane specimen was diluted by a buffer to 20 to 90 μg/mL of protein, then 50 μL of this cell membrane suspension was added to a 200 μL assay buffer containing each test sample (25 mM Tris-HCl, 100 mM NaCl, 2 mM MgCl2. 0.25 mM ATP, 5 mM phosphocreatine, 10 μg/mL creatine phosphokinase, 0.2 mM IBMX, 10 μM GTP, 10 μM forskolin, pH 7.4) and allowed to react at 30° C. for 5 minutes. 0.2N HCl was added in 250 μL to stop the reaction, then the cAMP produced was assayed by the radioimmunoassay method. […] Note that the adenylate cyclase activity was measured using as an indicator the amount of cAMP produced by the same enzyme. The rate of inhibition by the serotonin 1A receptor agonist was found using the amount of production due to forskolin (10 μM) stimulus as 100%.

[2] = system: Parkinson's disease patients; test: Clinical test of efficacy, safety and tolerability in patients with motor complications associated with Parkinson's disease; type: in vivo, human
Excerpt: The efficacy of SUN N4057 on motor complications accompanying levodopa therapy in Parkinson's disease patients was studied in randomized, double-blind, placebo-controlled, multicenter, international, preliminary study. The patients aged 40 to 85 years, having idiopathic Parkinson's disease fulfilling the United Kingdom Parkinson's Disease Society (UK PDS) brain bank diagnostic criteria, having a presumed or confirmed diagnosis of Parkinson's disease in Stages 2 to 4 on the Hoehn & Yahr classification scale when in an “off” state, having a diagnosis of Parkinson's disease for at least 5 years, and being on a stable regimen of levodopa (L-dopa)/carbidopa for 30 days prior to the administration of the tested drug were enrolled into the study.
After providing their informed consent, the subjects were screened in 9 to 22 days before scheduled date of start of administration. During the screening phase, the patients continued to take their usual regimen of antiparkinsonian drugs including combinations of levodopa and carbidopa or combined use of single drugs.
At the baseline (8±2 days before scheduled date of start of administration), the subjects returned to the clinic for a baseline assessment of motor fluctuations over an 8-hour period. They received the first morning dose of the patient's usual anti-Parkinson's disease drugs (including combination of levodopa and carbidopa or combined use of single drugs), and the 8 hour evaluation began approximately 1 hour after taking the initial treatment. Each hour for 8 hours, the patient were assessed and it was recorded whether the patient was in the “on” (without dyskinesia), “on with dyskinesia,” or “off” motor states. The Unified Parkinson's Disease Rating Scale (UPDRS) Part III and the Abnormal Involuntary Movement Scale AIMS were also completed each hour over the 8-hour observation period.
The subjects judged eligible after the screening and baseline evaluation were randomly assigned in a 3:1 ratio (3 active:1 placebo) to receive SUN N4057 or matching placebo. The subjects received continuous intravenous infusion of SUN N4057 (target plasma concentration of 30 ng/mL) or a placebo for 12 hours a day for 2 consecutive days. The dose regimen was selected to reach the target plasma concentration 1 hour after the start of administration and to be maintained for 11 hours. The mean dosage of SUN N4057 for the patients was 13.123 mg on day 1 and 9.550 mg on day 2.
On day 1, motor assessments (recording of “on” or “off” periods), the Unified Parkinson's Disease Rating Scale (UPDRS) Part III, and the Abnormal Involuntary Movement Scale (AIMS) were conducted immediately prior to dosing with regular antiparkinsonian medications. After the first morning dose of the regular antiparkinsonian medication was administered, intravenous infusion of SUN N4057 or placebo was started. For 8 hours from the start of infusion, motor assessments, including the UPDRS Part III, AIMS, and recording of “on” and “off” periods were to be completed hourly.

[3] = After administration (day 2), i.v. infusion 12 hours a day, n = 18

O=C1c2ccccc2OC=C(Cl)N1CCCCN1CC=C(c2ccccn2)CC1 [SUN N4057, 3-chloro-4,5-dihydro-4-{4-[4-(2-pyridyl)-1,2,3,6-tetrahydropyridin-1-yl]butyl}-1,4-benzoxazepin-5-one.dihydrochloride-dihydrate]
IC50 ([1]; forskolin (10 μM) stimulated, rat hippocampus membranes, read-out: IC50 of adenylate cyclase inhibition (for the maximum reaction)): 2.67 nM | inhibition ([1]; forskolin (10 μM) stimulus = 100%, rat hippocampus membranes, read-out: maximum inhibitory reaction of adenylate cyclase activity): 20% | full agonist-partial agonist judgment ([1]; serotonin 1A receptors of the serotonin nerve post-synapse membrane): partial agonist | Percentage of off time [2, 3]: 9.7% | Percentage of on time with dyskinesia [2, 3]: 49.3% | Percentage of on time without dyskinesia [2, 3]: 41.0% | serious adverse events or deaths ([2]; clinical study): no serious adverse events or deaths were reported | decrease of the percentage of off time in the comparison with baseline ([2]; day 2 (9.7-20.8)): 11.1 points | increase of the percentage of on time without dyskinesia in the comparison with baseline ([2]; day 2 (41.0-18.8)): 22.2 points | percentage of responder (dyskinesia by AIMS improved in severity or suppressed to zero without prolongation of off time) ([2]; day 2, placebo 0%, p=0.02): 56% | UPDRS Part 3 decline in comparison with the baseline ([2]; day 2 of administration, placebo 0.9): 4.4 point
